Consider 21 compounds from patent US7473790B2 (Pfizer Inc., priority 2003, dated 2009).

Structures are written as SMILES. pIC50: −log10 of the molar value.

One test deals with T1, HCV polymerase (Hepatitis C virus genotype 1b, UniProt P26663).
T1 construct: 2.5 pmoles (0.15 μg) HCV polymerase protein in a final volume of 75 μL
T1 sequence (P26663 2420-3010): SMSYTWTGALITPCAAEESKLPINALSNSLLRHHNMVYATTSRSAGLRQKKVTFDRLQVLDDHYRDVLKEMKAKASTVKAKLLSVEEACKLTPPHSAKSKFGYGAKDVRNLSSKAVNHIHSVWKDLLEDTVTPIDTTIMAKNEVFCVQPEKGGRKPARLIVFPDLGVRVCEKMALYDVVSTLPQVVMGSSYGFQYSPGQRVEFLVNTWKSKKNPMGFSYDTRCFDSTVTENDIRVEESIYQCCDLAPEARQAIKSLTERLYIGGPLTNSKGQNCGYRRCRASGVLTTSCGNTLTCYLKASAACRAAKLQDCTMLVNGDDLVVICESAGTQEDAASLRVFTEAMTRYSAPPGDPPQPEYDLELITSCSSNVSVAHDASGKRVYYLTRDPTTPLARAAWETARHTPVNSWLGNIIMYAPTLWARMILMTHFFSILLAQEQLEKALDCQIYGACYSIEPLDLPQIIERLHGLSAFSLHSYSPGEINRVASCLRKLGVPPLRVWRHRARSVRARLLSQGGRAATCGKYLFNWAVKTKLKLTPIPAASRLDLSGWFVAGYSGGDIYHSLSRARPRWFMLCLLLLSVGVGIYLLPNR
Description: HCV polymerase primer/template-directed transcription assay (32P-GTP incorporation, filter binding). In kind it is biochemical. Conditions: compound concentration not given. The gist of the method:
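IC50s come from triplicate cpm, refit with an enzyme-concentration (30 nM) correction when under 200 nM. Reactions ran 30 min at 30° C in Tris pH 7.2 with MgCl2, 1 μM GTP spiked with α-32P-GTP, biotin-dG12 primer and poly(rC)300 template, with 1% DMSO. Incorporated label was collected on DE filtermats and counted.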
`Cc1cc(C)n2nc(CC3=C(O)CC(CCc4ccc(O)c(C(C)C)c4)(C4CCCC4)OC3=O)nc2n1` (stereo not drawn) [B(94), 6-Cyclopentyl-3-(5,7-dimethyl-[1,2,4]triazolo[1,5-a]pyrimidin-2-ylmethyl)-4-hydroxy-6-[2-(4-hydroxy-3-isopropyl-phenyl)-ethyl]-5,6-dihydro-pyran-2-one]: the percent inhibition came to 1%.

Staying with this test, now noted: recombinant HCV polymerase; 30 minutes at 30° C.; concentration giving 50% inhibition of polymerase-directed transcription; read-out: IC50.
For orientation: pIC50 means the negative decadic logarithm of the IC50, by convention in mol/L. Regarding `COc1ccc(CCC2(C3CCCC3)CC(=O)C(Cc3ccccn3)C(=O)O2)cc1Cl` (stereo not drawn) [B(81), 6-[2-(3-chloro-4-methoxyphenyl)ethyl]-6-cyclopentyl-3-(pyridin-2-ylmethyl)dihydro-2H-pyran-2,4(3H)-dione], the pIC50 was around 6.62.

On to `COc1ccc(CCC2(C3CCCC3)CC(=O)C(Cc3ccncc3)C(=O)O2)cc1Cl` (stereo not drawn) [B(82), 6-[2-(3-chloro-4-methoxyphenyl)ethyl]-6-cyclopentyl-3-(pyridin-4-ylmethyl)dihydro-2H-pyran-2,4(3H)-dione], for which the negative-log IC50 (pIC50) was 6.17.

Regarding `COc1ccc(CCC2(C3CCCC3)CC(=O)C(Cc3cn4cccnc4n3)C(=O)O2)cc1Cl` (stereo not drawn) [B(83), 6-[2-(3-chloro-4-methoxyphenyl)ethyl]-6-cyclopentyl-3-(imidazo[1,2-a]pyrimidin-2-ylmethyl)dihydro-2H-pyran-2,4(3H)-dione], the pIC50 was 6.44.

Consider `COc1ccc(CCC2(C3CCCC3)CC(=O)C(Cc3nc4ccccc4n3C)C(=O)O2)cc1Cl` (stereo not drawn) [B(84), 6-[2-(3-chloro-4-methoxyphenyl)ethyl]-6-cyclopentyl-3-[(1-methyl-1H-benzimidazol-2-yl)methyl]dihydro-2H-pyran-2,4(3H)-dione], for which the pIC50 was 6.96.

As for `COc1ccc(CCC2(C3CCCC3)CC(=O)C(Cc3ccc4ccccc4n3)C(=O)O2)cc1Cl` (stereo not drawn) [B(85), 6-[2-(3-chloro-4-methoxyphenyl)ethyl]-6-cyclopentyl-3-(quinolin-2-ylmethyl)dihydro-2H-pyran-2,4(3H)-dione], the pIC50 was 6.13.

For the compound `COc1ccc(CCC2(C3CCCC3)CC(O)=C(C(=O)Cc3cc(C)no3)C(=O)O2)c(OC)c1` (stereo not drawn) [B(86), 6-Cyclopentyl-6-[2-(2,4-dimethoxy-phenyl)-ethyl]-4-hydroxy-3-[2-(3-methyl-isoxazol-5-yl)-acetyl]-5,6-dihydro-pyran-2-one], the pIC50 is 4.66.

In the case of `COc1ccc(CCC2(C3CCCC3)CC(O)=C(C(=O)Cc3ccccn3)C(=O)O2)cc1Cl` (stereo not drawn) [B(87), 6-[2-(3-Chloro-4-methoxy-phenyl)-ethyl]-6-cyclopentyl-4-hydroxy-3-(2-pyridin-2-yl-acetyl)-5,6-dihydro-pyran-2-one], the pIC50 was 5.74.

Regarding `COc1ccc(CCC2(C3CCCC3)CC(O)=C(C(C)=O)C(=O)O2)cc1Cl` (stereo not drawn) [B(88), 3-Acetyl-6-[2-(3-chloro-4-methoxy-phenyl)-ethyl]-6-cyclopentyl-4-hydroxy-5,6-dihydro-pyran-2-one], the pIC50 is 5.29.

As to `Cc1csc2nc(CC3=C(O)CC(CCc4ccc(C(F)F)c(F)c4)(C4CCCC4)OC3=O)cc(=O)n12` (stereo not drawn) [B(89), 7-[(6-Cyclopentyl-6-{2-[4-(difluoromethyl)-3-fluorophenyl]ethyl}-4-hydroxy-2-oxo-5,6-dihydro-2H-pyran-3-yl)methyl]-3-methyl-5H-[1,3]thiazolo[3,2-a]pyrimidin-5-one], the pIC50 is 6.73.

On to `COc1cc(OC)c(CCC2(C3CCCC3)CC(O)=C(Cc3cn4cccnc4n3)C(=O)O2)cc1Cl` (stereo not drawn) [B(90), 6-[2-(5-chloro-2,4-dimethoxyphenyl)ethyl]-6-cyclopentyl-4-hydroxy-3-(imidazo[1,2-a]pyrimidin-2-ylmethyl)-5,6-dihydro-2H-pyran-2-one], for which the pIC50 is 8.22.

For the compound `CCc1cc(CCC2(C3CCCC3)CC(=O)C(Cc3nc4nc(C)cc(C)n4n3)C(=O)O2)ccc1N(C)S(C)(=O)=O` (stereo not drawn) [B(91), 6N-[4-(2-{2-cyclopentyl-5-[(5,7-dimethyl[1,2,4]triazolo[1,5-a]pyrimidin-2-yl)methyl]-4,6-dioxotetrahydro-2H-pyran-2-yl}ethyl)-2-ethylphenyl]-N-methylmethanesulfonamide], the pIC50 was 8.00.

For the compound `Cn1ccc2cc(CC3=C(O)CC(CCc4ccc(C(C)(C)C#N)c(F)c4)(C4CCCC4)OC3=O)ccc21` (stereo not drawn) [B(92), 2-[4-(2-{2-cyclopentyl-4-hydroxy-5-[(1-methyl-1H-indol-5-yl)methyl]-6-oxo-3,6-dihydro-2H-pyran-2-yl}ethyl)-2-fluorophenyl]-2-methylpropanenitrile], the pIC50 was 8.10.

In the case of `CC(C)(C#N)c1ccc(CCC2(C3CCCC3)CC(O)=C(Cc3cn[nH]c3)C(=O)O2)cc1F` (stereo not drawn) [B(93), 2-(4-{2-[2-cyclopentyl-4-hydroxy-6-oxo-5-(1H-pyrazol-4-ylmethyl)-3,6-dihydro-2H-pyran-2-yl]ethyl}-2-fluorophenyl)-2-methylpropanenitrile], the pIC50 is 7.05.

As to `Cc1cc(C)n2nc(CC3=C(O)CC(CCc4ccc(O)c(Cl)c4)(C4CCCC4)OC3=O)nc2n1` (stereo not drawn) [B(95), 6-[2-(3-Chloro-4-hydroxy-phenyl)-ethyl]-6-cyclopentyl-3-(5,7-dimethyl-[1,2,4]triazolo[1,5-a]pyrimidin-2-ylmethyl)-4-hydroxy-5,6-dihydro-pyran-2-one], the pIC50 is 7.89.

For the compound `CCc1cc(CCC2(C3CCCC3)CC(O)=C(Cc3nc4nc(C)cc(C)n4n3)C(=O)O2)ccc1OC` (stereo not drawn) [B(96), 6-Cyclopentyl-3-(5,7-dimethyl-[1,2,4]triazolo[1,5-a]pyrimidin-2-ylmethyl)-6-[2-(3-ethyl-4-methoxy-phenyl)-ethyl]-4-hydroxy-5,6-dihydro-pyran-2-one], the pIC50 was 8.30.

Take `CCc1cc(CCC2(C3CCCC3)CC(O)=C(Cc3nc4nc(C)cc(C)n4n3)C(=O)O2)cc(Cl)c1OC` (stereo not drawn) [B(97), 6-[2-(3-Chloro-5-ethyl-4-methoxy-phenyl)-ethyl]-6-cyclopentyl-3-(5,7-dimethyl-[1,2,4]triazolo[1,5-a]pyrimidin-2-ylmethyl)-4-hydroxy-5,6-dihydro-pyran-2-one]: the pIC50 was 8.05.

As for `CCc1ccc(OC)c(CCC2(C3CCCC3)CC(O)=C(Cc3nc4nc(C)cc(C)n4n3)C(=O)O2)c1` (stereo not drawn) [B(98), 6-Cyclopentyl-3-(5,7-dimethyl-[1,2,4]triazolo[1,5-a]pyrimidin-2-ylmethyl)-6-[2-(5-ethyl-2-methoxy-phenyl)-ethyl]-4-hydroxy-5,6-dihydro-pyran-2-one], the pIC50 is 8.22.

For the compound `CCOc1ccc(CCC2(C3CCCC3)CC(O)=C(Cc3nc4nc(C)cc(C)n4n3)C(=O)O2)cc1CC` (stereo not drawn) [B(99), 6-Cyclopentyl-3-(5,7-dimethyl-[1,2,4]triazolo[1,5-a]pyrimidin-2-ylmethyl)-6-[2-(4-ethoxy-3-ethyl-phenyl)-ethyl]-4-hydroxy-5,6-dihydro-pyran-2-one], the pIC50 is 6.46.

For `CCc1cc(CCC2(C3CCCC3)CC(O)=C(Cc3nc4nc(C)cc(C)n4n3)C(=O)O2)cc(Cl)c1O` (stereo not drawn) [B(100), 6-[2-(3-Chloro-5-ethyl-4-hydroxy-phenyl)-ethyl]-6-cyclopentyl-3-(5,7-dimethyl-[1,2,4]triazolo[1,5-a]pyrimidin-2-ylmethyl)-4-hydroxy-5,6-dihydro-pyran-2-one], the pIC50 is 8.52.

As for `CCc1cc(CCC2(C3CCCC3)CC(=O)CC(=O)O2)cc(Cl)c1O` (stereo not drawn) [B(101), 6-[2-(3-Chloro-5-ethyl-4-hydroxy-phenyl)-ethyl]-6-cyclopentyl-dihydro-pyran-2,4-dione], the pIC50 is 6.21.
